Literature values, collected in patent US20060009509A1, “Progesterone receptor antagonists, contraceptive regimens, and kits” (Wyeth, priority 2004, published 2006).
Where two headings read alike, the source gives them in different places.

Test system: women

CC#C[C@]1(O)CC[C@H]2[C@@H]3CCC4=CC(=O)CCC4=C3[C@@H](c3ccc(N(C)C)cc3)C[C@@]21C [mifepristone]
women who ovulated at least once (1 mg daily, 3-month treatment (Croxatto 1998)): 14 of 21
ovulations, % of cycles (2 mg continuous, 4 months, Edinburgh site (Brown 2002)): 9.6%
ovulations, % of cycles (2 mg continuous, Shanghai site (Brown 2002)): 2.5%
ovulations, % of cycles (5 mg continuous, 4 months, Edinburgh site (Brown 2002)): 5.2%
ovulations, % of cycles (5 mg continuous, Shanghai site (Brown 2002)): 1.2%
prevention of ovulation (continuous dose of 1 mg, study of 11 subjects (Batista 1992)): appeared to prevent ovulation
prevention of ovulation (continuous dose of 1 mg, study with 5 subjects (Croxatto 1993)): not
prevention of ovulation (continuous low doses 2-10 mg, one treatment cycle, about 5 subjects per dose group (Spitz 1993; Ledger 1992)): prevent ovulation
